According to PubChem BioAssay (NCI):
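Interpolation was linear, between the two tested concentrations surrounding the appropriate level; five concentrations were tested over 48 hours in 96-well plates. GI50 marks 50% less growth. Definition used: TGI = concentration required for complete inhibition of growth.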

Assays:
Assay in all cases: growth of human tumour cells (NCI), 48 h
[1] = system: T-47D breast
[2] = system: UO-31 renal
[3] = system: BT-549 breast
[4] = system: HOP-92 NSCLC
[5] = system: PC-3 prostate
[6] = system: OVCAR-5 ovarian
[7] = system: K-562 leukemia
[8] = system: UACC-257 melanoma
[9] = system: MDA-MB-435
[10] = system: NCI/ADR-RES ovarian
[11] = system: MCF7 breast
[12] = system: MDA-MB-231 breast
[13] = system: NCI-H460 lung
[14] = system: HCC-2998 colon
[15] = system: OVCAR-8 ovarian
[16] = system: SF-539 CNS
[17] = system: HOP-62 NSCLC
[18] = system: HL-60(TB) leukemia
[19] = system: UACC-62 melanoma
[20] = system: RPMI-8226 leukemia
[21] = system: SK-MEL-2 melanoma
[22] = system: KM12 colon
[23] = system: OVCAR-4 ovarian
[24] = system: M14 melanoma
[25] = system: IGROV1 ovarian
[26] = system: HCT-15 colon
[27] = system: DU-145 prostate
[28] = system: A549 NSCLC
[29] = system: SF-268 CNS
[30] = system: NCI-H522 lung
[31] = system: MOLT-4 leukemia
[32] = system: LOX IMVI melanoma
[33] = system: HCT-116 colon
[34] = system: CCRF-CEM leukemia
[35] = system: 786-0 renal
[36] = system: SW-620 colon
[37] = system: SF-295 CNS
[38] = system: SNB-75 CNS
[39] = system: SK-OV-3 ovarian
[40] = system: U251 CNS
[41] = system: CAKI-1 renal
[42] = system: A498 renal
[43] = system: COLO 205 colon
[44] = system: SK-MEL-28 melanoma
[45] = system: SNB-19 CNS
[46] = system: SK-MEL-5 melanoma
[47] = system: RXF 393 renal
[48] = system: ACHN renal
[49] = system: EKVX NSCLC
[50] = system: SN12C renal
[51] = system: HT29 colon
[52] = system: HS 578T breast
[53] = system: NCI-H226 lung
[54] = system: OVCAR-3 ovarian
[55] = system: TK-10 renal

Cc1nc2ccccn2c1NC(=O)NN1C(=O)CSC1c1ccc(Cl)cc1 (centres undefined)
GI50 [1]: > 100 µM | TGI [1]: > 100 µM | GI50 [2]: > 100 µM | TGI [2]: > 100 µM | GI50 [3]: > 100 µM | TGI [3]: > 100 µM | GI50 [4]: > 100 µM | TGI [4]: > 100 µM | GI50 [5]: > 100 µM | TGI [5]: > 100 µM | GI50 [6]: > 100 µM | TGI [6]: > 100 µM | GI50 [7]: > 100 µM | TGI [7]: > 100 µM | GI50 [8]: > 100 µM | TGI [8]: > 100 µM | GI50 [9]: > 100 µM | TGI [9]: > 100 µM | GI50 [10]: > 100 µM | TGI [10]: > 100 µM | GI50 [11]: > 100 µM | TGI [11]: > 100 µM | GI50 [12]: > 100 µM | TGI [12]: > 100 µM | GI50 [13]: > 100 µM | TGI [13]: > 100 µM | GI50 [14]: > 100 µM | TGI [14]: > 100 µM | GI50 [15]: > 100 µM | TGI [15]: > 100 µM | GI50 [16]: > 100 µM | TGI [16]: > 100 µM | GI50 [17]: > 100 µM | TGI [17]: > 100 µM | GI50 [18]: > 100 µM | TGI [18]: > 100 µM | GI50 [19]: > 100 µM | TGI [19]: > 100 µM | GI50 [20]: > 100 µM | TGI [20]: > 100 µM | GI50 [21]: > 100 µM | TGI [21]: > 100 µM | GI50 [22]: > 100 µM | TGI [22]: > 100 µM | GI50 [23]: > 100 µM | TGI [23]: > 100 µM | GI50 [24]: > 100 µM | TGI [24]: > 100 µM | GI50 [25]: > 100 µM | TGI [25]: > 100 µM | GI50 [26]: > 100 µM | TGI [26]: > 100 µM | GI50 [27]: > 100 µM | TGI [27]: > 100 µM | GI50 [28]: > 100 µM | TGI [28]: > 100 µM | GI50 [29]: > 100 µM | TGI [29]: > 100 µM | GI50 [30]: > 100 µM | TGI [30]: > 100 µM | GI50 [31]: > 100 µM | TGI [31]: > 100 µM | GI50 [32]: > 100 µM | TGI [32]: > 100 µM | GI50 [33]: > 100 µM | TGI [33]: > 100 µM | TGI [34]: 12 nM | GI50 [35]: > 100 µM | TGI [35]: > 100 µM | GI50 [36]: > 100 µM | TGI [36]: > 100 µM | GI50 [37]: > 100 µM | TGI [37]: > 100 µM | GI50 [38]: > 100 µM | TGI [38]: > 100 µM | GI50 [39]: > 100 µM | TGI [39]: > 100 µM | GI50 [40]: > 100 µM | TGI [40]: > 100 µM | GI50 [41]: > 100 µM | TGI [41]: > 100 µM | GI50 [42]: > 100 µM | TGI [42]: > 100 µM | GI50 [43]: > 100 µM | TGI [43]: > 100 µM | GI50 [44]: > 100 µM | TGI [44]: > 100 µM | GI50 [45]: > 100 µM | TGI [45]: > 100 µM | GI50 [46]: > 100 µM | TGI [46]: > 100 µM | GI50 [47]: > 100 µM | TGI [47]: > 100 µM | GI50 [48]: > 100 µM | TGI [48]: > 100 µM | GI50 [49]: > 100 µM | TGI [49]: > 100 µM | GI50 [50]: > 100 µM | TGI [50]: > 100 µM | GI50 [51]: > 100 µM | TGI [51]: > 100 µM | GI50 [52]: > 100 µM | TGI [52]: > 100 µM | GI50 [53]: > 100 µM | TGI [53]: > 100 µM | GI50 [54]: > 100 µM | TGI [54]: > 100 µM | GI50 [55]: > 100 µM | TGI [55]: > 100 µM
